Measurements as given in patent US20230000996A1, “RAPAFUCIN DERIVATIVE COMPOUNDS AND METHODS OF USE THEREOF” (The Johns Hopkins University, priority 2019, published 2023).

Assay: Nucleoside uptake, single concentration assay (Rel.Uptake); cell line indicated in each table
Type: cell-based
Conditions: 293T cells, response relative to DMSO
Description: Nucleoside Uptake Assay (uptake). Nuceloside uptake assays were performed with using 3H-Thymidine as described in Guo et al. (2018) Nat. Chem. 11:254-63. Specific cell lines are indicated in each assay and cultured in complete growth media. Activity is scored according to the IC50 values relative to DMSO control. “Low” indicates an IC50 greater than 600 nM, “Medium” indicates an IC50 between 300 nM and 600 nM “High” indicates an IC50 less than 300 nM. “Rel.Uptake” refers to uptake activity characterization relative to a single concentration assay. “Low” indicates a response greater than 0.6 times the activity relative to DMSO, “Medium” indicates a response between 0.6 and 0.3 times the activity relative to DMSO, “High” indicates a response less than 0.3 times the activity relative to DMSO.

[1] = nucleoside uptake, single concentration assay

## COc1cc(CC[C@H]2OC(=O)[C@@H]3CCCCN3C(=O)C(=O)C(C)(C)COC(=O)C=CCCN(C)C(=O)[C@@H](Cc3ccccc3)NC(=O)CN(C)C(=O)[C@@H](Cc3ccccc3)NC(=O)[C@H](Cc3ccc(O)cc3)N(C)C(=O)COc3cccc2c3)cc(F)c1OC [Compound 1569]
[1]
  Rel. Uptake, 293T: low

## COc1ccc(CC[C@H]2OC(=O)[C@@H]3CCCCN3C(=O)C(=O)C(C)(C)COC(=O)C=CCCN(C)C(=O)[C@@H](Cc3ccccc3)NC(=O)CN(C)C(=O)[C@@H](Cc3ccccc3)NC(=O)[C@H](Cc3ccc(O)cc3)N(C)C(=O)COc3cccc2c3F)cc1OC [Compound 1579]
[1]
  Rel. Uptake, 293T: medium

## COc1ccc(CC[C@H]2OC(=O)[C@@H]3CCCCN3C(=O)C(=O)C(C)(C)COC(=O)C=CCCN(C)C(=O)[C@@H](Cc3ccccc3)NC(=O)CN(C)C(=O)[C@@H](Cc3ccccc3)NC(=O)[C@H](Cc3ccc(O)cc3)N(C)C(=O)COc3cc2ccc3F)cc1OC [Compound 1578]
[1]
  Rel. Uptake, 293T: low

## COc1ccc(CC[C@H]2OC(=O)[C@@H]3CCCCN3C(=O)C(=O)C(C)(C)COC(=O)C=CCCN(C)C(=O)[C@H](CC(C)C)N(C)C(=O)[C@H]3CCCN3C(=O)[C@H](Cc3ccc(O)cc3)NC(=O)C(c3ccccc3)NC(=O)CCC(=O)Nc3cccc2c3)cc1OC (stereo partly shown) [Compound 1522]
[1]
  Rel. Uptake, 293T: high

## CCCC[C@H]1C(=O)N[C@@H](Cc2ccc3ccccc3c2)C(=O)N(C)[C@@H](COC(C)(C)C)C(=O)NCC(=O)N(C)CCC=CC(=O)OCC(C)(C)C(=O)C(=O)N2CCCC[C@H]2C(=O)O[C@H](CCc2ccc(OC)c(O)c2)c2cccc(c2)OCC(=O)N1C [Compound 1564]
[1]
  Rel. Uptake, 293T: high

## C=C1NCC(=O)N(C)CC/C=C\C(=O)OCC(C)(C)C(=O)C(=O)N2CCCC[C@H]2C(=O)O[C@H](CCc2ccc(OC)c(OC)c2)c2cccc(c2)NC(=O)CCC(=O)N(C)[C@@H](CC(C)C)C(=O)N[C@H](Cc2ccccc2)C(=O)N(C)[C@H]1[C@@H](C)CC [Compound 1592]
[1]
  Rel. Uptake, 293T: Low (“Low” indicates a response greater than 0.6 times the activity relative to DMSO)

## COc1ccc(CC[C@H]2OC(=O)[C@@H]3CNCCN3C(=O)C(=O)C(C)(C)COC(=O)C=CCCN(C)C(=O)[C@@H](Cc3ccccc3)NC(=O)CN(C)C(=O)[C@@H](Cc3ccccc3)NC(=O)[C@H](Cc3ccc(O)cc3)N(C)C(=O)COc3cccc2c3)cc1OC [Compound 1573]
[1]
  Rel. Uptake, 293T: low

## COc1ccc(CC[C@H]2OC(=O)[C@@H]3CCCCN3C(=O)C(=O)C(C)(C)COC(=O)C=CCCN(C)C(=O)[C@H](CC(C)C)N(C)C(=O)[C@H]3CCCN3C(=O)[C@H](Cc3ccc(C(=O)NCCO)cc3)NC(=O)[C@H](c3ccccc3)NC(=O)CCC(=O)Nc3cccc2c3)cc1OC [Compound 1558]
[1]
  Rel. Uptake, 293T: high

## COc1ccc(CC[C@H]2OC(=O)[C@@H]3CCCCN3C(=O)C(=O)C(C)(C)COC(=O)C=CCCN(C)C(=O)[C@@H](Cc3ccccc3)NC(=O)CN(C)C(=O)[C@@H](Cc3ccccc3)NC(=O)[C@H](Cc3ccc(O)cc3)N(C)C(=O)COc3cc(F)cc2c3)cc1OC [Compound 1576]
[1]
  Rel. Uptake, 293T: medium

## COc1cc(F)c(CC[C@H]2OC(=O)[C@@H]3CCCCN3C(=O)C(=O)C(C)(C)COC(=O)C=CCCN(C)C(=O)[C@@H](Cc3ccccc3)NC(=O)CN(C)C(=O)[C@@H](Cc3ccccc3)NC(=O)[C@H](Cc3ccc(O)cc3)N(C)C(=O)COc3cccc2c3)cc1OC [Compound 1570]
[1]
  Rel. Uptake, 293T: medium

## COc1cc(OC)c(OC)cc1CC[C@H]1OC(=O)[C@@H]2CCCCN2C(=O)C(=O)C(C)(C)COC(=O)C=CCCN(C)C(=O)[C@@H](Cc2ccccc2)NC(=O)CN(C)C(=O)[C@@H](Cc2ccccc2)NC(=O)[C@H](Cc2ccc(O)cc2)N(C)C(=O)COc2cccc1c2 [Compound 1581]
[1]
  Rel. Uptake, 293T: medium

## COc1ccc(CC[C@H]2OC(=O)[C@@H]3CCCCN3C(=O)C(=O)C(C)(C)COC(=O)C=CCCN(C)C(=O)[C@@H](Cc3ccccc3)NC(=O)CN(C)C(=O)[C@@H](Cc3ccccc3)NC(=O)[C@H](Cc3ccc(O)cc3)N(C)C(=O)COc3cncc2c3)cc1OC [Compound 1580]
[1]
  Rel. Uptake, 293T: low

## COc1ccc(CC[C@H]2OC(=O)[C@@H]3CCCCN3C(=O)C(=O)C(C)(C)COC(=O)C=CCCN(C)C(=O)[C@H](CC(C)C)N(C)C(=O)[C@H]3CCCN3C(=O)[C@H](Cc3ccc(CC(=O)OC(C)(C)C)cc3)NC(=O)C(c3ccccc3)NC(=O)CCC(=O)Nc3cccc2c3)cc1OC (stereo partly shown) [Compound 1081]
Single concentration
  Rel. Uptake, 293T: medium

## COc1ccc(CC[C@H]2OC(=O)[C@@H]3CCCCN3C(=O)C(=O)C(C)(C)COC(=O)C=CCCN(C)C(=O)[C@H](CC(C)C)N(C)C(=O)[C@H]3CCCN3C(=O)[C@H](Cc3ccc(C(=O)Nc4cccnc4)cc3)NC(=O)[C@H](c3ccccc3)NC(=O)CCC(=O)Nc3cccc2c3)cc1OC [Compound 1562]
[1]
  Rel. Uptake, 293T: low

## COc1ccc(CC[C@H]2OC(=O)[C@@H]3CCCCN3C(=O)C(=O)C(C)(C)COC(=O)C=CCCN(C)C(=O)[C@H](CC(C)C)N(C)C(=O)[C@H]3CCCN3C(=O)[C@H](Cc3ccc(CC(=O)NCc4ccccc4)cc3)NC(=O)[C@H](c3ccccc3)NC(=O)CCC(=O)Nc3cccc2c3)cc1OC [Compound 1590]
[1]
  Rel. Uptake, 293T: High (“High” indicates a response less than 0.3 times the activity relative to DMSO)

## COc1ccc(CC[C@H]2OC(=O)[C@@H]3CN(C(=O)OCC4c5ccccc5-c5ccccc54)CCN3C(=O)C(=O)C(C)(C)COC(=O)C=CCCN(C)C(=O)[C@@H](Cc3ccccc3)NC(=O)CN(C)C(=O)[C@@H](Cc3ccccc3)NC(=O)[C@H](Cc3ccc(O)cc3)N(C)C(=O)COc3cccc2c3)cc1OC [Compound 1572]
[1]
  Rel. Uptake, 293T: low

## COc1cc(CC[C@H]2OC(=O)[C@@H]3CCCCN3C(=O)C(=O)C(C)(C)COC(=O)C=CCCN(C)C(=O)[C@@H](Cc3ccccc3)NC(=O)CN(C)C(=O)[C@@H](Cc3ccccc3)NC(=O)[C@H](Cc3ccc(O)cc3)N(C)C(=O)COc3cccc2c3)c(OC)c(OC)c1 [Compound 1582]
[1]
  Rel. Uptake, 293T: low

## COc1ccc(OC)c(OC)c1CC[C@H]1OC(=O)[C@@H]2CCCCN2C(=O)C(=O)C(C)(C)COC(=O)C=CCCN(C)C(=O)[C@@H](Cc2ccccc2)NC(=O)CN(C)C(=O)[C@@H](Cc2ccccc2)NC(=O)[C@H](Cc2ccc(O)cc2)N(C)C(=O)COc2cccc1c2 [Compound 1583]
[1]
  Rel. Uptake, 293T: low

## COc1ccc(CC[C@H]2OC(=O)[C@@H]3CCCCN3C(=O)C(=O)C(C)(C)COC(=O)C=CCCN(C)C(=O)[C@H](CC(C)C)N(C)C(=O)[C@H]3CCCN3C(=O)[C@H](Cc3ccc(CNC(=O)CN(C)C)cc3)NC(=O)[C@H](c3ccccc3)NC(=O)CCC(=O)Nc3cccc2c3)cc1OC [Compound 1587]
[1]
  Rel. Uptake, 293T: Low (“Low” indicates a response greater than 0.6 times the activity relative to DMSO)

## COc1ccc(CC[C@H]2OC(=O)[C@@H]3CCCCN3C(=O)C(=O)C(C)(C)COC(=O)C=CCCN(C)C(=O)[C@@H](Cc3ccccc3)NC(=O)CN(C)C(=O)[C@@H](Cc3ccccc3)NC(=O)[C@H](Cc3ccc(O)cc3)N(C)C(=O)COc3cccc2c3)c(OC)c1OC [Compound 1577]
[1]
  Rel. Uptake, 293T: medium

## COc1ccc(CC[C@H]2OC(=O)[C@@H]3CN(C)CCN3C(=O)C(=O)C(C)(C)COC(=O)C=CCCN(C)C(=O)[C@@H](Cc3ccccc3)NC(=O)CN(C)C(=O)[C@@H](Cc3ccccc3)NC(=O)[C@H](Cc3ccc(O)cc3)N(C)C(=O)COc3cccc2c3)cc1OC [Compound 1574]
[1]
  Rel. Uptake, 293T: low

## CCCC[C@H]1C(=O)N[C@@H](Cc2ccc3ccccc3c2)C(=O)N(C)[C@@H](COC(C)(C)C)C(=O)NCC(=O)N(C)CCC=CC(=O)OCC(C)(C)C(=O)C(=O)N2CCCC[C@H]2C(=O)O[C@H](CCc2ccc(OC)c(OC)c2)c2cncc(c2)OCC(=O)N1C [Compound 1565]
[1]
  Rel. Uptake, 293T: low

## CCCCCCNC(=O)Cc1ccc(C[C@@H]2NC(=O)[C@H](c3ccccc3)NC(=O)CCC(=O)Nc3cccc(c3)[C@@H](CCc3ccc(OC)c(OC)c3)OC(=O)[C@@H]3CCCCN3C(=O)C(=O)C(C)(C)COC(=O)C=CCCN(C)C(=O)[C@H](CC(C)C)N(C)C(=O)[C@H]3CCCN3C2=O)cc1 [Compound 1591]
[1]
  Rel. Uptake, 293T: Med

## COc1ccc(CC[C@H]2OC(=O)[C@@H]3CCCCN3C(=O)C(=O)C(C)(C)COC(=O)C=CCCN(C)C(=O)[C@H](CC(C)C)N(C)C(=O)[C@H]3CCCN3C(=O)[C@H](Cc3ccc(CNC(=O)c4ccccc4)cc3)NC(=O)[C@H](c3ccccc3)NC(=O)CCC(=O)Nc3cccc2c3)cc1OC [Compound 1585]
[1]
  Rel. Uptake, 293T: High (“High” indicates a response less than 0.3 times the activity relative to DMSO)

## COc1ccc(CC[C@H]2OC(=O)[C@@H]3CCCCN3C(=O)C(=O)C(C)(C)COC(=O)C=CCCN(C)C(=O)[C@H](CC(C)C)N(C)C(=O)[C@H]3CCCN3C(=O)[C@H](Cc3ccc(OCc4ccccc4)cc3)NC(=O)C(c3ccccc3)NC(=O)CCC(=O)Nc3cccc2c3)cc1OC (stereo partly shown) [Compound 1082]
Single concentration
  Rel. Uptake, 293T: low

## COc1ccc(CC[C@H]2OC(=O)[C@@H]3CCCCN3C(=O)C(=O)C(C)(C)COC(=O)C=CCCN(C)C(=O)[C@H](CC(C)C)N(C)C(=O)[C@H]3CCCN3C(=O)[C@H](Cc3ccc(CNC(=O)Cc4ccccc4)cc3)NC(=O)[C@H](c3ccccc3)NC(=O)CCC(=O)Nc3cccc2c3)cc1OC [Compound 1586]
[1]
  Rel. Uptake, 293T: Med

## COc1cc(CC[C@H]2OC(=O)[C@@H]3CCCCN3C(=O)C(=O)C(C)(C)COC(=O)C=CCCN(C)C(=O)[C@@H](Cc3ccccc3)NC(=O)CN(C)C(=O)[C@@H](Cc3ccccc3)NC(=O)[C@H](Cc3ccc(O)cc3)N(C)C(=O)COc3cccc2c3)cc(OC)c1OC [Compound 1566]
[1]
  Rel. Uptake, 293T: medium

## COc1ccc(CC[C@H]2OC(=O)[C@@H]3CCCCN3C(=O)C(=O)C(C)(C)COC(=O)C=CCCN(C)C(=O)[C@@H]3CCCN3C(=O)[C@H](COC(C)(C)C)N(C)C(=O)[C@@H](c3ccccc3)NC(=O)[C@H](C)N(C)C(=O)COc3cc(F)cc2c3)cc1OC [Compound 1595]
[1]
  Rel. Uptake, 293T: Low (“Low” indicates a response greater than 0.6 times the activity relative to DMSO)
